What was measured:
[1] = Rodent pharmacokinetics (rat PK); type: in vivo; settings: po, dosed intravenously or orally by gavage, plasma, read-out: F % (bioavailability)
Summary of the method: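 Rats were dosed IV or by oral gavage, with jugular blood taken predose and at 5 min (IV only), 15, 30 min and 1, 2, 4, 8, 24 h. Plasma was separated by centrifugation at 4 °C. Oral bioavailability (F %) is coded A (≥5%) or B (≤5%).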

IRAK4 = target: T1, IRAK4 (Homo sapiens, UniProt Q9NWZ3); experiment: IRAK4 MSD degradation in OCI-LY10; type: cell-based; settings: OCI-LY10 cells, 24 hrs, Meso Scale Discovery
T1 construct: endogenous in cells; host or cells: OCI-LY10
T1 sequence (Q9NWZ3 1-460): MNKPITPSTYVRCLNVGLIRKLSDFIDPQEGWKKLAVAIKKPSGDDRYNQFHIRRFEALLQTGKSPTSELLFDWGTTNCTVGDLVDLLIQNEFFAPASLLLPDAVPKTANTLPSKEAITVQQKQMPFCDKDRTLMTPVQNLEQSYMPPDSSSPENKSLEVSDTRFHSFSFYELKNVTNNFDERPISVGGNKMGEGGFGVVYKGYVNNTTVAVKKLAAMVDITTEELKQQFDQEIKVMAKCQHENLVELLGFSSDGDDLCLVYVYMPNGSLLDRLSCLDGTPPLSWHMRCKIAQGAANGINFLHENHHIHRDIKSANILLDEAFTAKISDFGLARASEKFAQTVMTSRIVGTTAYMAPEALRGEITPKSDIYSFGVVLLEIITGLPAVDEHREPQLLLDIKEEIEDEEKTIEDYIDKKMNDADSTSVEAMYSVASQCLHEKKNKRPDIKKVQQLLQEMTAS
Summary of the method: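 OCI-LY10 cells treated 4 to 24 hours at 37° C. with 8-dose 1:3 series, top 1 to 10 μM. IRAK4 in lysates quantified by MSD sandwich immunoassay (mouse capture, rabbit detection, SULFO-TAG anti-rabbit). DC50 from three-parameter logistic fit.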

bioavailability [1] [%]	DC50 (IRAK4) [nM]	SMILES
≤ 5	< 10	COc1cc2nn([C@H]3CC[C@H](CN4CCC5(CCN(c6cccc7c6n(C)c(=O)n7C6CCC(=O)NC6=O)CC5)C(F)(F)C4)CC3)cc2cc1NC(=O)c1cncc(C#N)c1 (some centres unmarked) [I-259]
≤ 5	< 10	COc1cc2nn([C@H]3CC[C@H](CN4CCC5(CN(c6c(F)ccc7c6n(C)c(=O)n7C6CCC(=O)NC6=O)C5)C(F)(F)C4)CC3)cc2cc1NC(=O)c1cncc(C#N)c1 (some centres unmarked) [I-260]
≤ 5	< 10	Cn1c(=O)n(C2CCC(=O)NC2=O)c2cccc([C@@H]3CCN(C[C@H]4CC[C@H](c5cn6cc(NC(=O)c7cccc(C(F)(F)F)n7)ccc6n5)CC4)C[C@H]3F)c21 (some centres unmarked) [I-262]
≤ 5	< 10	Cn1c(=O)n(C2CCC(=O)NC2=O)c2cccc([C@@H]3CCN(C[C@H]4CC[C@H](c5cn6cc(NC(=O)c7cccc(C(F)(F)F)n7)c(C(C)(C)O)cc6n5)CC4)C[C@H]3F)c21 (some centres unmarked) [I-268]
≤ 5	> 200	Cn1c(=O)n(C2CCC(=O)NC2=O)c2cccc(N3CC(COC[C@H]4CC[C@H](n5cc6cc(NC(=O)c7cccc(C(F)(F)F)c7)ncc6n5)CC4)C3)c21 (some centres unmarked) [I-269]
≤ 5	10 to 100	COc1cc2nn([C@H]3CC[C@H](COCC4CN(c5cccc6c5n(C)c(=O)n6C5CCC(=O)NC5=O)C4)CC3)cc2cc1NC(=O)c1cncc(C#N)c1 (some centres unmarked) [I-270]
≤ 5	< 10	COc1cc2nn([C@H]3CC[C@H](CN4CC[C@@H](c5cccc6c5n(C)c(=O)n6C5CCC(=O)NC5=O)[C@H](F)C4)CC3)cc2cc1NC(=O)c1cncc(C(F)F)c1 (some centres unmarked) [I-271]
≤ 5	> 200	Cc1cc2nn([C@H]3CC[C@H](CN4CC[C@@H](c5cccc6c5n(C)c(=O)n6C5CCC(=O)NC5=O)[C@H](F)C4)CC3)cc2cc1NC(=O)c1cncc(C#N)c1 (some centres unmarked) [I-272]
≤ 5	< 10	Cn1c(=O)n(C2CCC(=O)NC2=O)c2cccc([C@@H]3CCN(C[C@H]4CC[C@H](c5cn6cc(NC(=O)c7cccc(C(F)(F)F)c7)ccc6n5)CC4)C[C@H]3F)c21 (some centres unmarked) [I-274]
≤ 5	< 10	CC(C)Oc1cc2nn([C@H]3CC[C@H](CN4CC[C@@H](c5cccc6c5n(C)c(=O)n6C5CCC(=O)NC5=O)[C@H](F)C4)CC3)cc2cc1NC(=O)c1cncc(C#N)c1 (some centres unmarked) [I-275]
≤ 5	< 10	Cn1c(=O)n(C2CCC(=O)NC2=O)c2cccc([C@@H]3CCN(C[C@H]4CC[C@H](c5cn6cc(NC(=O)c7cccc(C(F)(F)F)c7)c(C(C)(C)O)cc6n5)CC4)C[C@H]3F)c21 (some centres unmarked) [I-276]
≤ 5	< 10	COc1cc2nc([C@H]3CC[C@H](CN4CC[C@@H](c5cccc6c5n(C)c(=O)n6C5CCC(=O)NC5=O)[C@H](F)C4)CC3)cn2cc1NC(=O)c1cccc(C(F)(F)F)c1 (some centres unmarked) [I-278]
≤ 5	< 10	COc1cc2nn([C@H]3CC[C@H](CN4CC[C@@H](c5cccc6c5n(C)c(=O)n6C5CCC(=O)NC5=O)[C@H](F)C4)CC3)cc2cc1C(=O)Nc1cncc(C(F)(F)F)c1 (some centres unmarked) [I-283]
≤ 5	10 to 100	COc1cc2nc([C@H]3CC[C@H](CN4CC[C@@H](c5cccc6c5n(C)c(=O)n6C5CCC(=O)NC5=O)[C@H](F)C4)CC3)oc2cc1NC(=O)c1cncc(C(F)(F)F)n1 (some centres unmarked) [I-284]
≤ 5	< 10	Cc1cc2nn([C@H]3CC[C@H](CN4CC[C@@H](c5cccc6c5n(C)c(=O)n6C5CCC(=O)NC5=O)[C@H](F)C4)CC3)cc2cc1NC(=O)c1cncc(C(F)(F)F)n1 (some centres unmarked) [I-286]
≥ 5	< 10	Cn1c(=O)n(C2CCC(=O)NC2=O)c2cccc([C@@H]3CCN(C[C@H]4CC[C@H](c5nc6cc(C(C)(C)O)c(NC(=O)c7cncc(C(F)(F)F)n7)cc6o5)CC4)C[C@H]3F)c21 (some centres unmarked) [I-288]
≤ 5	< 10	COc1cc2nn([C@H]3CC[C@H](CN4CC[C@@H](c5cccc6c5n(C)c(=O)n6C5CCC(=O)NC5=O)[C@H](F)C4)CC3)cc2cc1C(=O)Nc1cncc(C(F)(F)F)n1 (some centres unmarked) [I-290]

bioavailability [1] [%]	DC50 (IRAK4) [nM]	SMILES
≤ 5	< 10	Cn1c(=O)n(C2CCC(=O)NC2=O)c2cccc([C@@H]3CCN(C[C@H]4CC[C@H](n5cc6cc(NC(=O)c7cncc(C(F)(F)F)n7)c(F)cc6n5)CC4)C[C@H]3F)c21 (some centres unmarked) [I-296]
≤ 5	> 200	O=C1CCN(c2cc(C(=O)N3CCN(C[C@H]4CC[C@H](n5cc6cc(NC(=O)c7cncc(C(F)(F)F)n7)ccc6n5)CC4)CC3)ncc2Cl)C(=O)N1 [I-305]
≤ 5	< 10	Cc1cncc(C(=O)Nc2ccc3nn([C@H]4CC[C@H](CN5CC[C@@H](c6cccc7c6n(C)c(=O)n7C6CCC(=O)NC6=O)[C@H](F)C5)CC4)cc3c2)n1 (some centres unmarked) [I-307]
≤ 5	< 10	COc1cc2nc([C@H]3CC[C@H](CN4CC[C@@H](c5cccc6c5n(C)c(=O)n6C5CCC(=O)NC5=O)[C@H](F)C4)CC3)cn2cc1NC(=O)c1cncc(C(F)(F)F)n1 (some centres unmarked) [I-308]
≤ 5	< 10	Cc1cncc(C(=O)Nc2cc3cn([C@H]4CC[C@H](CN5CC[C@@H](c6cccc7c6n(C)c(=O)n7C6CCC(=O)NC6=O)[C@H](F)C5)CC4)nc3cn2)n1 (some centres unmarked) [I-310]
≤ 5	< 10	Cn1c(=O)n(C2CCC(=O)NC2=O)c2cccc([C@@H]3CCN(C[C@H]4CC[C@H](n5cc6cc(NC(=O)c7cncc(C8CC8)n7)ccc6n5)CC4)C[C@H]3F)c21 (some centres unmarked) [I-311]
≤ 5	10 to 100	Cc1nn(C2CCC(=O)NC2=O)c2cccc(N3CCC4(CCN(C[C@H]5CC[C@H](n6cc7cc(NC(=O)c8cncc(C#N)c8)c(C(C)(C)O)cc7n6)CC5)CC4(F)F)CC3)c12 (some centres unmarked) [I-312]
≤ 5	< 10	Cn1c(=O)n(C2CCC(=O)NC2=O)c2cccc([C@@H]3CCN(C[C@H]4CC[C@H](n5cc6cc(NC(=O)c7cncc(C(F)F)n7)ncc6n5)CC4)C[C@H]3F)c21 (some centres unmarked) [I-321]
≤ 5	< 10	Cn1c(=O)n(C2CCC(=O)NC2=O)c2cccc([C@@H]3CCN(C[C@H]4CC[C@H](n5cc6cc(NC(=O)c7cncc(C(C)(C)C)n7)ncc6n5)CC4)C[C@H]3F)c21 (some centres unmarked) [I-322]
≤ 5	< 10	Cn1c(=O)n(C2CCC(=O)NC2=O)c2cccc([C@@H]3CCN(C[C@H]4CC[C@H](n5cc6cc(NC(=O)c7cncc(C(F)F)n7)ccc6n5)CC4)C[C@H]3F)c21 (some centres unmarked) [I-323]
≤ 5	< 10	Cn1c(=O)n(C2CCC(=O)NC2=O)c2cccc([C@@H]3CCN(C[C@H]4CC[C@H](n5cc6cc(NC(=O)c7cncc(C(C)(C)C)n7)ccc6n5)CC4)C[C@H]3F)c21 (some centres unmarked) [I-324]
≥ 5	< 10	Cn1c(=O)n(C2CCC(=O)NC2=O)c2cccc(N3CC4(CCN(C[C@H]5CC[C@H](n6cc7cc(NC(=O)c8cncc(C(F)(F)F)n8)c(C(C)(C)O)cc7n6)CC5)CC4(F)F)C3)c21 (some centres unmarked) [I-326]
≤ 5	< 10	Cn1c(=O)n(C2CCC(=O)NC2=O)c2cccc([C@@H]3CCN(C[C@H]4CC[C@H](n5cc6cc(NC(=O)c7cncc(OC(F)F)n7)ncc6n5)CC4)C[C@H]3F)c21 (some centres unmarked) [I-337]
≤ 5	< 10	Cn1c(=O)n(C2CCC(=O)NC2=O)c2cccc([C@@H]3CCN(C[C@H]4CC[C@H](n5cc6cc(NC(=O)c7cncc(C8CC8)n7)ncc6n5)CC4)C[C@H]3F)c21 (some centres unmarked) [I-338]
≤ 5	< 10	Cn1c(=O)n(C2CCC(=O)NC2=O)c2cccc([C@@H]3CCN(C[C@H]4CC[C@H](n5cc6cc(NC(=O)c7cncc(OC(F)F)n7)ccc6n5)CC4)C[C@H]3F)c21 (some centres unmarked) [I-339]
≤ 5	< 10	Cc1cncc(C(=O)Nc2cc3cn([C@H]4CC[C@H](CN5CCC6(CN(c7cccc8c7n(C)c(=O)n8C7CCC(=O)NC7=O)C6)C(F)(F)C5)CC4)nc3cc2C(C)(C)O)c1 (some centres unmarked) [I-342]
≤ 5	< 10	Cn1c(=O)n(C2CCC(=O)NC2=O)c2cccc([C@@H]3CCN(C[C@H]4CC[C@H](c5cn6cc(NC(=O)c7cncc(C(F)(F)F)n7)c(C(C)(C)O)cc6n5)CC4)C[C@H]3F)c21 (some centres unmarked) [I-343]
